This passage reports Activity, EC50 and fraction unbound results from ChEMBL document CHEMBL4665650, “Towards a TREK-1/2 (TWIK-Related K+ Channel 1 and 2) dual activator tool compound: Multi-dimensional optimization of BL-1249” (Bioorg Med Chem Lett, 2019).

As usually defined, the EC50 is the concentration that produces a half-maximal response. Usually fraction unbound stands for free concentration divided by total concentration.

The target of data set [1] is T1, Potassium channel subfamily K member 10 (Homo sapiens) (UniProt P57789).
T1 sequence (whole entry): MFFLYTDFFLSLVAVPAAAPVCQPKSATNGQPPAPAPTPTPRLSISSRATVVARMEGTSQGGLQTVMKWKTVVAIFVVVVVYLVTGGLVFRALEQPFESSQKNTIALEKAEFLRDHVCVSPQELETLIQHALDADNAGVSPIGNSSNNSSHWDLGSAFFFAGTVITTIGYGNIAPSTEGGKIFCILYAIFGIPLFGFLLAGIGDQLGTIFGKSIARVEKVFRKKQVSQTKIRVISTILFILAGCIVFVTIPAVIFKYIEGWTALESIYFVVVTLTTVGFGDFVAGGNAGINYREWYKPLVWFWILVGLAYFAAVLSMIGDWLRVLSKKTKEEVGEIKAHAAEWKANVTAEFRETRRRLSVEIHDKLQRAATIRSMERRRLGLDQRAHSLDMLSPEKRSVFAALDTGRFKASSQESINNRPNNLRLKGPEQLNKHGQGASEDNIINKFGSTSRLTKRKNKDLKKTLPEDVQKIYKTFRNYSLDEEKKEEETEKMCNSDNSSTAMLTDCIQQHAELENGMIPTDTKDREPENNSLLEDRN
In words: Activation of human TREK2 at 30 uM by thallium flux mobilization assay relative to control.

The target of data set [2] is T2, Potassium channel subfamily K member 2 (Homo sapiens) (UniProt O95069).
T2 sequence (whole entry): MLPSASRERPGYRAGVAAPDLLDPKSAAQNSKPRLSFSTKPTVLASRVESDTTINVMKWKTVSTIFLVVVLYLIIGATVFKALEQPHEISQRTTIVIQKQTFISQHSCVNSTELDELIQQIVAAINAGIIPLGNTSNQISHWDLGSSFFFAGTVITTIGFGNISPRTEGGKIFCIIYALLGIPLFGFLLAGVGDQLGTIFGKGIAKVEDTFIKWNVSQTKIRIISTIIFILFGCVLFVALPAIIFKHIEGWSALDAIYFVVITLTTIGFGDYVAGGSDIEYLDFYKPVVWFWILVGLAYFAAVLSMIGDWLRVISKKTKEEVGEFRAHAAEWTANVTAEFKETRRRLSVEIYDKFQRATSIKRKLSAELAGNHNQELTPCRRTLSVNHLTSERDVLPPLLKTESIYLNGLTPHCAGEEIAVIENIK
Put plainly: Activation of human TREK1 at 30 uM by thallium flux mobilization assay relative to control.

The target in data set [3] is T3, Potassium channel subfamily K member 10 (Homo sapiens, UniProt P57789).
T3 sequence (P57789 whole entry): T1 sequence (whole entry)
In words: Activation of human TREK2 by thallium flux mobilization assay.

For data set [4], the target named is T4, Potassium channel subfamily K member 2 (Homo sapiens, UniProt O95069).
T4 sequence (O95069 whole entry): T2 sequence (whole entry)
In words: Activation of human TREK1 by thallium flux mobilization assay.

Data set [5] deals with T1, Potassium channel subfamily K member 10 (Homo sapiens). In words: Activation of human TREK2 at 10 uM by thallium flux mobilization assay relative to control.
Data set [6] has as its target T2, Potassium channel subfamily K member 2 (Homo sapiens). Put plainly: Activation of human TREK1 at 10 uM by thallium flux mobilization assay relative to control.
A short description of data set [7]: Fraction unbound in mouse plasma. It counts as ADME, cell-free.
Data set [8] is described as follows: Fraction unbound in human plasma. It counts as ADME, cell-free.
Data set [9] in a line: Fraction unbound in rat plasma. It counts as ADME, cell-free.

Each structure is given as a SMILES string.

As to `O=C(Nc1nccnc1C(=O)O)c1ccc(SC(F)(F)F)cc1`, the Activity in data set [1] was 0%; in [2], -6%.

`O=C(Nc1ccc([N+](=O)[O-])cc1C(=O)O)c1ccc(SC(F)(F)F)cc1`: the EC50 came out at 26.5 µM in [3] and 13.7 µM in data set [4]. Besides, the Activity came out at 65% in [1] (filed as activator) and 56% in [2] (filed as activator).

As for `O=C(O)Cc1cccc(NC(=O)c2cccc(C(F)(F)F)c2)c1`, the results for the Activity in data set [1] and in data set [2] were 1% and -1%, respectively.

On to `O=C(Nc1cnncc1C(=O)O)c1ccc(SC(F)(F)F)cc1`, for which the Activity in [1] and in data set [2] was 1% throughout.

As for `COc1ccc(NC(=O)c2ccc(SC(F)(F)F)cc2)c(C(=O)O)c1`, the results for the EC50 in [3] and in data set [4] were greater than 30 µM and 20.2 µM, respectively. Moreover, the Activity in data set [1] came out at 31%; in [2] (filed as activator), 50%.

With `O=C(O)c1cccc(NC(=O)c2ccccc2C(F)(F)F)c1`, the Activity was -1% in data set [1] and -14% in [2].

On to `O=C(O)c1ccccc1NC(=O)c1ccccc1C(F)(F)F`, for which the Activity is -3% in data set [1] and 1% in [2].

On to `O=C(Nc1cccc2c1CCCC2)c1ccccc1-c1nnn[nH]1`, for which the Activity in [5] amounted to 1%; in [6], 0%.

`O=C(O)c1cccc(NC(=O)c2ccc(C(F)(F)F)cc2)c1`: the Activity in data set [1] is 0%; in data set [2], -11%.

For the compound `O=C(Nc1cc(Br)ccc1C(=O)O)c1ccc(SC(F)(F)F)cc1`, the figures for the concentration giving a half-maximal response (EC50) in data set [3] and in data set [4] were 5.9 µM and 4.3 µM, respectively. In addition, the Activity was 74% in data set [1] (filed as activator) and 76% in data set [2] (filed as activator).

Consider `O=C(O)c1cccc(NC(=O)c2cccc(C(F)(F)F)c2)c1`, for which the Activity in data set [1] is -3%; in data set [2], -10%.

With `COc1ccc(C(=O)O)c(NC(=O)c2ccc(SC(F)(F)F)cc2)c1`, the EC50 in data set [3] was determined as 28.5 µM; in data set [4], 16.5 µM. Moreover, the Activity came out at 27% in [1] and 52% in [2] (filed as activator).

Take `O=C(O)Cc1ccccc1NC(=O)c1ccc(C(F)(F)F)cc1`: the Activity in data set [1] is 0%; in [2] it was -6%.

For `O=C(Nc1ccccc1C(=O)O)c1ccc(C(F)(F)F)cc1`, the Activity in data set [1] was determined as 12%; in data set [2], 28%.

Consider `O=C(O)Cc1ccccc1NC(=O)c1cccc(C(F)(F)F)c1`, for which the figures for the Activity in data set [1] and in data set [2] were 2% and 5%, respectively.

As for `O=C(Nc1ncncc1C(=O)O)c1ccc(SC(F)(F)F)cc1`, the Activity in data set [1] was 0%; in data set [2] it was -4%.

With `O=C(O)Cc1ccccc1NC(=O)c1ccccc1C(F)(F)F`, the Activity in data set [1] is -1%; in data set [2] it was 4%.

For `O=C(Nc1ccccc1-c1nnn[nH]1)c1ccc2c(c1)CCCC2`, the EC50 in data set [4] was found to be 13.1 µM. The results for the Activity in data set [5] and in data set [6] were 21% and 24%, respectively.

Consider `O=C(Nc1ccc(OC(F)(F)F)cc1C(=O)O)c1ccc(SC(F)(F)F)cc1`, for which the EC50 was 5.6 µM in data set [3] and 4.6 µM in [4]. For the same compound, the Activity in data set [1] (filed as activator) came out at 60%; in data set [2] (filed as activator) it was 57%.

Turning to `O=C(Nc1ccccc1C(=O)O)c1cccc(SC(F)(F)F)c1`, the figures for the Activity in [1] and in data set [2] were 17% and 40%, respectively.

Take `O=C(O)Cc1cccc(NC(=O)c2ccccc2C(F)(F)F)c1`: the figures for the Activity in [1] and in [2] were 0% and 2%, respectively.

In the case of `O=C(Nc1ccc(Br)cc1C(=O)O)c1ccc(SC(F)(F)F)cc1`, the values for the concentration giving a half-maximal response (EC50) in data set [3] and in [4] were 7.7 µM and 5.9 µM, respectively. Also, the figures for the Activity in [1] (filed as activator) and in [2] (filed as activator) were 101% and 114%, respectively. The results for the fraction unbound in data set [7], in [8] and in data set [9] were 0.029, 0.003 and 0.013, respectively.

In the case of `Cc1sc(NC(=O)c2ccc(SC(F)(F)F)cc2)c(C(=O)O)c1C`, the EC50 was less than 3.6 µM in [3] and less than 3.1 µM in [4]. The Activity in data set [1] stood at 12%; in [2], 31%.

Regarding `O=C(Nc1sccc1C(=O)O)c1ccc(SC(F)(F)F)cc1`, the concentration for a half-maximal effect (EC50) in data set [3] and in data set [4] was greater than 30 µM throughout. Moreover, the Activity in [1] worked out at 28%; in data set [2] (filed as activator), 58%.

For `O=C(Nc1ccccc1C(=O)O)c1cccc(C(F)(F)F)c1`, the Activity came out at 12% in data set [1] and 28% in data set [2].

On to `O=C(Nc1sc(-c2ccccc2)cc1C(=O)O)c1ccc(SC(F)(F)F)cc1`, for which the concentration for a half-maximal effect (EC50) in data set [3] is greater than 30 µM; in [4] it was 22.4 µM. The figures for the Activity in data set [1] (filed as activator) and in [2] (filed as activator) were 49% and 83%, respectively.

Turning to `O=C(Nc1ccccc1-c1nnn[nH]1)c1cccc2c1CCCC2`, the Activity in [5] turned out to be 2%; in data set [6], 6%.

With `O=C(Nc1ccccc1C(=O)O)c1ccc(SC(F)(F)F)cc1`, the concentration giving a half-maximal response (EC50) came to 5 µM in data set [3] and 12.8 µM in data set [4]. Besides, the Activity in [1] came out at 17%; in data set [2] (filed as activator) it was 50%. In addition, the fraction unbound in data set [7] turned out to be 0.081; in data set [8], 0.026; in data set [9], 0.04.

As for `O=C(Nc1cc(Cl)ccc1C(=O)O)c1ccc(SC(F)(F)F)cc1`, the EC50 in [3] is 7.5 µM; in [4] it was 4.4 µM. For the same compound, the values for the Activity in [1] (filed as activator) and in [2] (filed as activator) were 73% and 66%, respectively.

As for `O=C(Nc1ccc(F)cc1C(=O)O)c1ccc(SC(F)(F)F)cc1`, the concentration for a half-maximal effect (EC50) in data set [3] is greater than 30 µM; in data set [4] it was 9.5 µM. Further, the Activity amounted to 43% in [1] (filed as activator) and 54% in [2] (filed as activator).

As to `O=C(Nc1ccc2c(c1)CCCC2)c1ccccc1-c1nnn[nH]1`, the Activity in data set [5] stood at 1%; in data set [6] it was 0%.

`O=C(Nc1ccoc1C(=O)O)c1ccc(SC(F)(F)F)cc1`: the figures for the Activity in data set [1] and in [2] were 5% and 8%, respectively.

Turning to `O=C(O)Cc1cccc(NC(=O)c2ccc(C(F)(F)F)cc2)c1`, the Activity in data set [1] was -1%; in data set [2], 0%.

As for `O=C(Nc1ncccc1C(=O)O)c1ccc(SC(F)(F)F)cc1`, the Activity is 1% in data set [1] and -4% in [2].

For `O=C(Nc1ccc(Cl)cc1C(=O)O)c1ccc(SC(F)(F)F)cc1`, the concentration for a half-maximal effect (EC50) is 6.8 µM in data set [3] and 3.8 µM in data set [4]. Further, the Activity turned out to be 76% in [1] (filed as activator) and 69% in data set [2] (filed as activator).
